Results published in patent publication US11643421B2, “Process for the preparation of tricyclic PI3K inhibitor compounds and methods for using the same for the treatment of cancer” (priority 2015, dated 2023).

Test: MALDI imaging of brain distribution, U87 orthotopic model
Type: in vivo, female nude mice
Conditions: re-analysis of previously obtained images (Salphati et al. 2014)
Experimental: Mice were euthanized at 1 and 6 hours post-dose via exsanguination by perfusion under anesthesia. Brains were excised, flash frozen in liquid N2 and stored in a −80° C. freezer until analyzed. Fresh frozen tissue sections were obtained on a cryomicrotome (Leica CM3050S, Buffalo Grove, Ill.) at 12 μm thickness and thaw-mounted onto indium tin oxide coated glass slides (Bruker Daltonics, Billerica, Mass.). Tissue sections were an analyzed by imaging MALDI MS, providing signal intensities (and not absolute quantitation), followed by cresyl violet staining for histological interrogation.
For MALDI MAS analysis, a 40 mg/mL solution of 2,5-dihydroxybenzoic acid (Sigma-Aldrich, St. Louis, Mo.) was prepared in methanol:water (70:30 v/v). […] Matrix solution was homogenously spray-coated onto the tissue using a HTX TM-Sprayer (HTX technologies. Chapel Hill, N.C.). Matrix-coated tissue sections were transferred to the MALDI mass spectrometer (SolariX 7T FT-ICR, Bruker Daltonics, Bremen, Germany) for imaging analysis. […] Laser intensity and number of shots were optimized for sensitivity of the parent drug (1200 shots) with ion detection collected over the mass range of m/z 150-3000.
Following completion of the imaging experiments, matrix coaling was removed by rinsing the glass slide in 100% methanol for 30 seconds or until the entire matrix was visibly removed. […] Microscope images were obtained on an Olympus BX51 (Tokyo, Japan) at 10× magnification and stitched using MicroSuite Analytical v3.0 software (Olympus, Tokyo, Japan). Subsequently, stained images were co-registered to the optical images in FlexImaging for visualization and annotation of tumor and non-tumor regions for the drug images.
To assess drug distribution, imaging MALDI MS data from U87 and GS2 tumor models were co-registered to the cresyl violet stained microscope images in FlexImaging Regions of interest (ROIs) that were selected based on the anatomical features defined in the histological image including tumor and non-tumor regions. Drug intensity for each pixel within the defined ROI was extracted and exported. […] Histogram plots were created in GraphPad Prism 5 to visualize the distribution of pixel intensity frequencies.

- distribution of signal intensities in the U87 tumor (MALDI): concentrated in the low intensity bins
Structure (SMILES): CS(=O)(=O)N1CCN(Cc2cc3nc(-c4cccc5[nH]ncc45)nc(N4CCOCC4)c3s2)CC1 [pictilisib, reference compound]
